# Laboratory results taken from ChEMBL document CHEMBL1201862, “PubChem BioAssay data set” (2004).
#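 How tested: cells in 96-well plates exposed to compound for 48 hours at five concentrations. GI50 is the concentration that inhibits growth by half.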 Active and inactive are the calls of the source. Rule as the data show it: active = GI50 up to about 1.1 µM and inactive = higher.
# Tests used:
# Assay in all cases: inhibition of tumour cell growth, NCI panel, 48 h
# 786-0 = test system: 786-0
# A549 = test system: A549
# ACHN = test system: ACHN
# CAKI-1 = test system: CAKI-1
# CCRF-CEM = test system: CCRF-CEM
# COLO 205 = test system: COLO 205
# DLD-1 = test system: DLD-1
# DMS-273 = test system: DMS-273
# EKVX = test system: EKVX
# HCC 2998 = test system: HCC 2998
# HCT-15 = test system: HCT-15
# HOP-92 = test system: HOP-92
# HT-29 = test system: HT-29
# IGROV-1 = test system: IGROV-1
# K562 = test system: K562
# KM-20L2 = test system: KM-20L2
# KM12 = test system: KM12
# LXFL 529 = test system: LXFL 529
# M14 = test system: M14
# M19-MEL = test system: M19-MEL
# MOLT-4 = test system: MOLT-4
# Malme-3M = test system: Malme-3M
# NCI-H23 = test system: NCI-H23
# NCI-H522 = test system: NCI-H522
# OVCAR-3 = test system: OVCAR-3
# OVCAR-4 = test system: OVCAR-4
# OVCAR-5 = test system: OVCAR-5
# OVCAR-8 = test system: OVCAR-8
# RXF 393 = test system: RXF 393
# RXF 631 = test system: RXF 631
# SF-268 = test system: SF-268
# SF-295 = test system: SF-295
# SF-539 = test system: SF-539
# SK-MEL-28 = test system: SK-MEL-28
# SK-MEL-2 = test system: SK-MEL-2
# SK-MEL-5 = test system: SK-MEL-5
# SK-OV-3 = test system: SK-OV-3
# SN12C = test system: SN12C
# SNB-19 = test system: SNB-19
# SNB-78 = test system: SNB-78
# SR = test system: SR
# SW-620 = test system: SW-620
# TK-10 = test system: TK-10
# U-251 = test system: U-251
# UACC-62 = test system: UACC-62
# UO-31 = test system: UO-31
# XF498 = test system: XF498
# A498 = test system: A498
# HCT-116 = test system: HCT-116
# HL-60 = test system: HL-60
# HOP-18 = test system: HOP-18
# HOP-62 = test system: HOP-62
# LOX IMVI = test system: LOX IMVI
# NCI-H226 = test system: NCI-H226
# NCI-H460 = test system: NCI-H460
# RPMI-8226 = test system: RPMI-8226
# UACC-257 = test system: UACC-257
smiles,measurement,setting,value
Nc1ccc(C(=O)N/C(=C\C=C\c2ccco2)c2nc3c(O)nc(S)nc3[nH]2)cc1,GI50,786-0,> 100 µM (inactive)
same,GI50,A549,> 100 µM (inactive)
same,GI50,ACHN,> 100 µM (inactive)
same,GI50,CAKI-1,> 100 µM (inactive)
same,GI50,CCRF-CEM,> 100 µM (inactive)
same,GI50,COLO 205,> 100 µM (inactive)
same,GI50,DLD-1,> 100 µM (inactive)
same,GI50,DMS-273,> 100 µM (inactive)
same,GI50,EKVX,> 100 µM (inactive)
same,GI50,HCC 2998,> 100 µM (inactive)
same,GI50,HCT-15,> 100 µM
same,GI50,HOP-92,> 100 µM (inactive)
same,GI50,HT-29,> 100 µM (inactive)
same,GI50,IGROV-1,> 100 µM (inactive)
same,GI50,K562,> 100 µM (inactive)
same,GI50,KM-20L2,87.1 µM (inactive)
same,GI50,KM12,> 100 µM (inactive)
same,GI50,LXFL 529,> 100 µM (inactive)
same,GI50,M14,> 100 µM (inactive)
same,GI50,M19-MEL,> 100 µM (inactive)
same,GI50,MOLT-4,> 100 µM (inactive)
same,GI50,Malme-3M,> 100 µM (inactive)
same,GI50,NCI-H23,> 100 µM (inactive)
same,GI50,NCI-H522,> 100 µM (inactive)
same,GI50,OVCAR-3,> 100 µM (inactive)
same,GI50,OVCAR-4,> 100 µM (inactive)
same,GI50,OVCAR-5,> 100 µM (inactive)
same,GI50,OVCAR-8,> 100 µM (inactive)
same,GI50,RXF 393,> 100 µM (inactive)
same,GI50,RXF 631,> 100 µM (inactive)
same,GI50,SF-268,> 100 µM (inactive)
same,GI50,SF-295,> 100 µM (inactive)
same,GI50,SF-539,> 100 µM (inactive)
same,GI50,SK-MEL-28,> 100 µM (inactive)
same,GI50,SK-MEL-2,> 100 µM (inactive)
same,GI50,SK-MEL-5,> 100 µM (inactive)
same,GI50,SK-OV-3,> 100 µM (inactive)
same,GI50,SN12C,> 100 µM (inactive)
same,GI50,SNB-19,> 100 µM (inactive)
same,GI50,SNB-78,> 100 µM (inactive)
same,GI50,SR,> 100 µM (inactive)
same,GI50,SW-620,> 100 µM (inactive)
same,GI50,TK-10,> 100 µM (inactive)
same,GI50,U-251,> 100 µM (inactive)
same,GI50,UACC-62,> 10 µM (inactive)
same,GI50,UO-31,> 100 µM (inactive)
same,GI50,XF498,> 100 µM (inactive)
O/N=C(\C(=N/O)Nc1ccc(-c2ccc(NC(=N/O)/C(=N\O)c3ccccc3)cc2)cc1)c1ccccc1,GI50,786-0,21.5 µM (inactive)
same,GI50,A498,24.1 µM (inactive)
same,GI50,A549,31.5 µM (inactive)
same,GI50,ACHN,30.6 µM (inactive)
same,GI50,CAKI-1,22.4 µM (inactive)
same,GI50,CCRF-CEM,18.8 µM (inactive)
same,GI50,COLO 205,16.7 µM (inactive)
same,GI50,DLD-1,22.3 µM (inactive)
same,GI50,DMS-273,19.1 µM (inactive)
same,GI50,EKVX,20.4 µM (inactive)
same,GI50,HCC 2998,0.214 µM (active)
same,GI50,HCT-116,18.7 µM (inactive)
same,GI50,HCT-15,27.3 µM
same,GI50,HL-60,27.9 µM (inactive)
same,GI50,HOP-18,13.6 µM (inactive)
same,GI50,HOP-62,11 µM (inactive)
same,GI50,HOP-92,20 µM (inactive)
same,GI50,HT-29,13.6 µM (inactive)
same,GI50,IGROV-1,25.1 µM (inactive)
same,GI50,K562,18 µM (inactive)
same,GI50,KM-20L2,18.9 µM (inactive)
same,GI50,KM12,19 µM (inactive)
same,GI50,LOX IMVI,15.3 µM (inactive)
same,GI50,LXFL 529,15.7 µM (inactive)
same,GI50,M14,17.9 µM (inactive)
same,GI50,M19-MEL,17.2 µM (inactive)
same,GI50,MOLT-4,17.3 µM (inactive)
same,GI50,Malme-3M,19.4 µM (inactive)
same,GI50,NCI-H226,28.5 µM (inactive)
same,GI50,NCI-H23,17.5 µM (inactive)
same,GI50,NCI-H460,17.3 µM (inactive)
same,GI50,NCI-H522,17.8 µM (inactive)
same,GI50,OVCAR-3,17.1 µM (inactive)
same,GI50,OVCAR-5,13.5 µM (inactive)
same,GI50,OVCAR-8,21.4 µM (inactive)
same,GI50,RPMI-8226,25.9 µM (inactive)
same,GI50,SF-268,27.4 µM (inactive)
same,GI50,SF-295,18.6 µM (inactive)
same,GI50,SF-539,18.9 µM (inactive)
same,GI50,SK-MEL-2,20.2 µM (inactive)
same,GI50,SK-MEL-5,20.3 µM (inactive)
same,GI50,SK-OV-3,17.5 µM (inactive)
same,GI50,SN12C,32.8 µM (inactive)
same,GI50,SNB-19,19.2 µM (inactive)
same,GI50,SNB-78,30.8 µM (inactive)
same,GI50,SW-620,22.2 µM (inactive)
same,GI50,TK-10,36.8 µM (inactive)
same,GI50,U-251,25.7 µM (inactive)
same,GI50,UACC-257,29.9 µM (inactive)
same,GI50,UACC-62,18.5 µM (inactive)
same,GI50,UO-31,31.8 µM (inactive)
same,GI50,XF498,19.3 µM (inactive)
Cc1ccc(SSc2ccc(C)cc2C(=O)O)c(C(=O)O)c1,GI50,786-0,> 100 µM (inactive)
same,GI50,A498,> 100 µM (inactive)
same,GI50,A549,> 100 µM (inactive)
same,GI50,ACHN,> 100 µM (inactive)
same,GI50,CAKI-1,> 100 µM (inactive)
same,GI50,CCRF-CEM,> 100 µM (inactive)
same,GI50,COLO 205,> 100 µM (inactive)
same,GI50,DLD-1,> 100 µM (inactive)
same,GI50,DMS-273,> 100 µM (inactive)
same,GI50,EKVX,> 100 µM (inactive)
same,GI50,HL-60,> 100 µM (inactive)
same,GI50,HOP-62,> 100 µM (inactive)
same,GI50,HOP-92,> 100 µM (inactive)
same,GI50,HT-29,> 100 µM (inactive)
same,GI50,K562,> 100 µM (inactive)
same,GI50,KM-20L2,> 100 µM (inactive)
same,GI50,KM12,> 100 µM (inactive)
same,GI50,LOX IMVI,> 100 µM (inactive)
same,GI50,LXFL 529,> 100 µM (inactive)
same,GI50,M19-MEL,> 100 µM (inactive)
same,GI50,MOLT-4,> 100 µM (inactive)
same,GI50,Malme-3M,> 100 µM (inactive)
same,GI50,NCI-H226,> 100 µM (inactive)
same,GI50,NCI-H23,> 100 µM (inactive)
same,GI50,NCI-H460,> 100 µM (inactive)
same,GI50,NCI-H522,> 100 µM (inactive)
same,GI50,OVCAR-4,> 100 µM (inactive)
same,GI50,OVCAR-5,> 100 µM (inactive)
same,GI50,OVCAR-8,> 100 µM (inactive)
same,GI50,RXF 393,> 100 µM (inactive)
same,GI50,RXF 631,> 100 µM (inactive)
same,GI50,SF-268,> 100 µM (inactive)
same,GI50,SF-295,> 100 µM (inactive)
same,GI50,SF-539,> 100 µM (inactive)
same,GI50,SK-MEL-28,> 100 µM (inactive)
same,GI50,SK-MEL-2,> 100 µM (inactive)
same,GI50,SK-MEL-5,> 100 µM (inactive)
same,GI50,SK-OV-3,> 100 µM (inactive)
same,GI50,SN12C,> 100 µM (inactive)
same,GI50,SNB-19,> 100 µM (inactive)
same,GI50,SNB-78,> 100 µM (inactive)
same,GI50,SR,> 100 µM (inactive)
same,GI50,SW-620,> 100 µM (inactive)
same,GI50,TK-10,> 100 µM (inactive)
same,GI50,U-251,> 100 µM (inactive)
same,GI50,UACC-257,> 100 µM (inactive)
same,GI50,UACC-62,> 100 µM (inactive)
same,GI50,UO-31,> 100 µM (inactive)
